The results in this text go back to ChEMBL document CHEMBL3872207, “Aromatic heterocyclic esters of podophyllotoxin exert anti-MDR activity in human leukemia K562/ADR cells via ROS/MAPK signaling pathways” (Eur J Med Chem, 2016).

The source made the active and inactive calls. No cut-off for these calls is given here.

Test [1] relates to K562/Adr. Nature of the test: Induction of ROS generation in human K562/ADR cells at 0.1 uM measured after 24 hrs by DCFH-DA probe based inverted fluorescence microscopy. The format is functional, cell-based.
For test [2], the system named is K562/Adr. Kind of test: Induction of ERK1/2 phosphorylation in human K562/ADR cells assessed as ratio of phosphorylated ERK1/2 to beta-actin level at 0.1 uM pretreated with MAPK inhibitor U0126 for 1 hr followed by compound addition after 48 hrs by Western blotting method (reference value: 0.22). The format is cell-based. (In general: Immunoblotting shows a protein as a band on a membrane.)

In test [3] the target is MAP kinase p38 (Homo sapiens) (UniProt O15264+Q15759+Q16539+P53778). Nature of the test: Induction of P38 phosphorylation in human K562/ADR cells assessed as ratio of phosphorylated p38 to beta-actin level at 0.1 uM pretreated with MAPK inhibitor U0126 for 1 hr followed by compound addition after 48 hrs by Western blotting method (reference value: 0.25). The format is cell-based.

The nature of test [4]: Downregulation of CyclinB1 expression in human K562/ADR cells assessed as ratio of CyclinB1 to beta-actin level at 0.1 uM measured after 48 hrs by Western blot analysis (reference value: 0.77). In kind it is functional, cell-based.
The nature of test [5]: Downregulation of CyclinB1 expression in human K562/ADR cells assessed as ratio of CyclinB1 to beta-actin level at 0.1 uM pretreated with MAPK inhibitor U0126 for 1 hr followed by compound addition measured after 48 hrs by Western blot analysis (reference value: 0.77). The format is functional, cell-based.
In test [6] the test system is K562/Adr. Nature of the test: Induction of apoptosis in human K562/ADR cells assessed as viable cells at 0.1 uM pretreated with MAPK inhibitor U0126 for 1 hr followed by compound addition after 48 hrs by Annexin V-APC/7-AAD staining based flow cytometry (reference value: 95.31%). In kind it is functional. Conditions: read-out: Activity. For orientation: A flow cytometer gives signals particle by particle.

The subject of test [7] is K562/Adr. Nature of the test: Induction of apoptosis in human K562/ADR cells assessed as necrotic cells at 0.1 uM pretreated with MAPK inhibitor SP600125 for 1 hr followed by compound addition after 48 hrs by Annexin V-APC/7-AAD staining based flow cytometry (reference value: 0.26%). The format is functional. The arrangement: scale not given: the % may be the effect or the level left.

For test [8], the system named is K562/Adr. Kind of test: Induction of apoptosis in human K562/ADR cells assessed as early apoptotic cells at 0.1 uM pretreated with MAPK inhibitor SB203580 for 1 hr followed by compound addition after 48 hrs by Annexin V-APC/7-AAD staining based flow cytometry (reference value: 2.74%). In kind it is functional. The arrangement: scale not given: the % may be the effect or the level left.

The test system of test [9] is K562/Adr. Kind of test: Induction of apoptosis in human K562/ADR cells assessed as ratio of cleaved caspase-8 to beta-actin level at 0.1 uM pretreated with MAPK inhibitor U0126 for 1 hr followed by compound addition measured after 48 hrs by Western blot analysis (reference value: 0.07). The format is functional.
Test [10] has as its system K562/Adr. Kind of test: Induction of apoptosis in human K562/ADR cells assessed as ratio of cleaved PARP to beta-actin level at 0.1 uM pretreated with MAPK inhibitor U0126 for 1 hr followed by compound addition measured after 48 hrs by Western blot analysis (reference value: 0.04). In kind it is functional.
Test [11] deals with K562/Adr. Nature of the test: Induction of apoptosis in human K562/ADR cells assessed as ratio of cleaved caspase-8 to beta-actin level at 0.1 uM pretreated with MAPK inhibitor SP600125 for 1 hr followed by compound addition measured after 48 hrs by Western blot analysis (reference value: 0.07). In kind it is functional.
Test [12] concerns K562/Adr. Kind of test: Induction of apoptosis in human K562/ADR cells assessed as ratio of cleaved caspase-3 to beta-actin level at 0.1 uM pretreated with MAPK inhibitor SB203580 for 1 hr followed by compound addition measured after 48 hrs by Western blot analysis (reference value: 0.06). The format is functional.
The test system of test [13] is K562/Adr. Nature of the test: Induction of apoptosis in human K562/ADR cells assessed as membrane blebbing at 0.1 uM measured after 24 hrs by Hoechst33342 staining-based inverted fluorescent microscopic analysis. In kind it is functional, cell-based.
Test [14] in a line: Downregulation of P-gp expression in human K562/ADR cells assessed as ratio of P-gp to beta-actin level at 0.1 uM measured after 48 hrs by Western blot analysis (reference value: 0.63). In kind it is functional, cell-based.
Test [15] can be described thus: Downregulation of P-gp expression in human K562/ADR cells assessed as ratio of P-gp to beta-actin level at 0.1 uM pretreated with MAPK inhibitor SB203580 for 1 hr followed by compound addition measured after 48 hrs by Western blot analysis (reference value: 0.63). The format is functional, cell-based.
A short description of test [16]: Potency index, ratio of doxorubicin IC50 to compound IC50 for antiproliferative activity against human K562/ADR cells. The format is functional.

As for `COc1cc([C@@H]2c3cc4c(cc3[C@H](OC(=O)c3ccco3)[C@H]3COC(=O)[C@H]23)OCO4)cc(OC)c1OC`, the outcome in the test on K562/Adr [1] and in the test on K562/Adr [13] was Active. Also, the Ratio with K562/Adr [2] came out at 0.01; in test [3], 0.21; in test [4] it was 0.19; in test [5], 0.51; in the test on K562/Adr [9], 0.42; in the test on K562/Adr [10] it was 0.43. The Ratio in the test on K562/Adr [11] came to 0.47; in the test on K562/Adr [12], 0.52; in [14] it was 0.07; in [15], 0.34. In addition, in the test on K562/Adr [6], the viability at 0.1 µM was 56.5%. The Activity in the test on K562/Adr [7] is reported as 3.42%; with K562/Adr [8] it was 6.84%. Further, in test [16], the “Ratio IC50” value is 586.843.
